This is an account of results in ChEMBL document CHEMBL3244239, “Potential antitumor agents. Synthesis, reactivity, and cytoxicity of alpha-methylene carbonyl compounds” (1978).

≈ marks a conversion by molar mass, not a printed value.

The test concerns KB. Nature of the test: Cytotoxicity against human KB cells. The class given is functional. The conditions noted are these: read-out: ED50 (the source's name).
On to `O=C1OCC/C1=C\OCCCO/C=C1\CCOC1=O`, for which the EC50 is above 100 µg/mL.

`O=C1OCC/C1=C\OC(=O)c1ccccc1`: the EC50 turned out to be 100 µg/mL (≈ 458 µM).

Consider `O=C1OCC/C1=C\CCC/C=C1\CCOC1=O`, for which the EC50 was above 100 µg/mL.

As to `C=C(C)C(=O)O[C@H]1CC2=C[C@@H](C[C@@]3(C)O[C@@H]3[C@H]3OC(=O)C(=C)[C@@H]31)OC2=O` [ELEPHANTOPIN], the EC50 is 1 µg/mL (≈ 2.77 µM).

In the case of `C=C1C(=O)O[C@@H]2[C@@H]3[C@H](C[C@H]12)[C@@H]1C=C[C@@H]3C1`, the EC50 stood at 1 µg/mL (≈ 4.94 µM).

Consider `C=C1C(=O)O[C@@H]2CCCC[C@@H]12` (relative stereo), for which the EC50 is 38 µg/mL (≈ 250 µM).

For `C=C1CCOC1=O` [TULIPALINE A], the EC50 is 16 µg/mL (≈ 163 µM).

As for `C=C1CC(CCCC2CC(=C)C(=O)O2)OC1=O` (stereo not drawn), the EC50 is 4 µg/mL (≈ 16.9 µM).
